The values that follow come from ChEMBL document CHEMBL5532652, “Design and synthesis of pterostilbene derivatives bearing triazole moiety that might treat DSS-induced colitis in mice through modulation of NF-κB/MAPK signaling pathways” (Eur J Med Chem, 2024).

Structures are written as SMILES. pIC50: −log10 of the molar value.

Data set [1] in a line: Cytotoxicity against mouse RAW264.7 cells assessed as reduction in cell viability at 20 uM incubated for 24 hrs in presence of LPS by MTT assay. The class given is toxicity, cell-based.
Data set [2] concerns RAW264.7. The experiment in a line: Cytotoxicity against mouse RAW264.7 cells assessed as reduction in cell viability at 20 uM incubated for 24 hrs by MTT assay. The data set is classed as toxicity, cell-based. The settings on record: raw264.7, 24 h. (Tetrazolium assays rely on reduction of a dye to a coloured formazan, in cell work by metabolically active cells.)
Data set [3] has as its system RAW264.7. Put plainly: Anti-inflammatory activity in mouse RAW264.7 cells assessed as inhibition of LPS-induced NO production incubated pretreated with compound for 1 hr followed by LPS-induction and measured after 24 hrs by Griess reagent based assay. The class given is functional, cell-based. A general note: Griess reagent forms a coloured azo dye with nitrite.
Data set [4] has as its system RAW264.7. Put plainly: Anti-inflammatory activity in mouse RAW264.7 cells assessed as inhibition of LPS-induced NO production at 10 uM incubated pretreated with compound for 1 hr followed by LPS-induction and measured after 24 hrs by Griess reagent based assay relative to control. The class given is functional. The settings on record: time 25 hrs.
The nature of data set [5]: Cytotoxicity against mouse RAW264.7 cells assessed as reduction in cell viability at 20 uM incubated for 24 hrs in absence of LPS by MTT assay. The class given is toxicity, cell-based.
Data set [6] is described as follows: Toxicity in C57BL/6 mouse assessed as body weight loss at 200 mg/kg, po measured for 7 days. The settings on record: in vivo, 168 h, time 7 day. The data set is classed as organism-based.

The term IC50 denotes the point on the concentration scale where inhibition reaches its midpoint. By pIC50 is commonly meant the negative decadic logarithm of the IC50, by convention in mol/L. One may read the inhibition as the drop in the measured response relative to a control, in per cent.

As for `C=C(C)COc1ccc(/C=C/c2cc(OC)cc(OC)c2-c2cnn[nH]2)cc1`, the IC50 at 24 h in data set [1] and in data set [5] was above 50 µM each time. In data set [2], the Activity result is “Non-Toxic”. The pIC50 in data set [3] is 5.15. For the same molecule, the inhibition at 10 µM in data set [4] stood at 74.2%.

In the case of `COc1ccc(/C=C/c2cc(OC)cc(OC)c2-c2cnn[nH]2)cc1`, the Activity entry in data set [2] is “Non-Toxic”.

For the molecule `COc1cc(/C=C/c2ccc(OCc3ccc(Br)cc3)cc2)c(-c2cnn[nH]2)c(OC)c1`, the Activity result in data set [2] was “Non-Toxic”.

With `O=C(O)c1cc(/N=N/c2ccc(S(=O)(=O)Nc3ccccn3)cc2)ccc1O` [SULFASALAZINE], the Activity result in data set [6] is recorded as “Non-Toxic”.

`CCOc1ccc(/C=C/c2cc(OC)cc(OC)c2-c2cnn[nH]2)cc1`: the Activity result in data set [2] was “Non-Toxic”.

With `COCCCCOc1ccc(/C=C/c2cc(OC)cc(OC)c2-c2cnn[nH]2)cc1`, the Activity result in data set [2] is “Non-Toxic”.

For `CCOC(=O)COc1ccc(/C=C/c2cc(OC)cc(OC)c2-c2cnn[nH]2)cc1`, in data set [2], the Activity result was “Non-Toxic”.

As for `COc1cc(/C=C/c2ccc(OCC3CCCC3)cc2)c(-c2cnn[nH]2)c(OC)c1`, in data set [2], the Activity result is reported as “Non-Toxic”.

For `C=CCOc1ccc(/C=C/c2cc(OC)cc(OC)c2-c2cnnn2C(=O)NCCCC)cc1`, the IC50 at 24 h in data set [1] and in data set [5] was above 50 µM in each case. For the same molecule, the pIC50 in data set [3] was 4.93. Also, the inhibition at 10 µM in data set [4] came to 50%.

With `C=CCOc1ccc(/C=C/c2cc(OC)cc(OC)c2-c2cnnn2C(=O)NCCC)cc1`, the IC50 at 24 h in data set [1] and in data set [5] was above 50 µM in each case. Moreover, the pIC50 in data set [3] is 5.59. For the same molecule, the inhibition at 10 µM in data set [4] was 81.1%.

In the case of `C=C(C)COc1ccc(/C=C/c2cc(OC)cc(OC)c2-c2cnnn2C(=O)NCCC)cc1`, the IC50 at 24 h in data set [1] and in data set [5] was above 50 µM throughout. Moreover, the pIC50 in data set [3] was 5.21. Also, the inhibition at 10 µM in data set [4] is 77.5%.

As for `C=CCOc1ccc(/C=C/c2cc(OC)cc(OC)c2-c2cnnn2C(=O)NCCc2ccccc2)cc1`, the IC50 at 24 h in data set [1] and in data set [5] was above 50 µM in each case. Besides, in data set [3], the pIC50 is 4.85. Besides, in data set [4], the inhibition at 10 µM is 45.3%.

Turning to `C=CCCOc1ccc(/C=C/c2cc(OC)cc(OC)c2-c2cnnn2C(=O)NCC)cc1`, the IC50 at 24 h in data set [1] and in data set [5] was above 50 µM in each case. The negative-log IC50 (pIC50) in data set [3] is 4.87. The inhibition at 10 µM in data set [4] stood at 46.3%.

Consider `C=CCCOc1ccc(/C=C/c2cc(OC)cc(OC)c2-c2cnnn2C(=O)NCCc2ccccc2)cc1`, for which the IC50 at 24 h in data set [1] and in data set [5] was above 50 µM in each case. The pIC50 in data set [3] is 5.02. For the same molecule, the inhibition at 10 µM in data set [4] came out at 64.6%.

Turning to `C=C(C)COc1ccc(/C=C/c2cc(OC)cc(OC)c2-c2cnnn2C(=O)NCCCC)cc1`, the IC50 at 24 h in data set [1] and in data set [5] was above 50 µM in each case. For the same molecule, the pIC50 in data set [3] was 4.89. For the same molecule, the inhibition at 10 µM in data set [4] is 54.6%.

As for `CCOCCOc1ccc(/C=C/c2cc(OC)cc(OC)c2-c2cnn[nH]2)cc1`, the Activity result in data set [2] is reported as “Non-Toxic”.

With `C=CCOc1ccc(/C=C/c2cc(OC)cc(OC)c2-c2cnnn2C(=O)NC(C)C)cc1`, the IC50 at 24 h in data set [1] and in data set [5] was above 50 µM each time. Besides, the pIC50 in data set [3] was 5.10. In addition, the inhibition at 10 µM in data set [4] stood at 75%.

In the case of `C=C(C)COc1ccc(/C=C/c2cc(OC)cc(OC)c2-c2cnnn2C(=O)NCCc2ccccc2)cc1`, the IC50 at 24 h in data set [1] and in data set [5] was above 50 µM throughout. Besides, the pIC50 in data set [3] is 4.83. Moreover, in data set [4], the inhibition at 10 µM came to 42.6%.

As for `COc1cc(/C=C/c2ccc(OCc3cc(F)cc(F)c3)cc2)c(-c2cnn[nH]2)c(OC)c1`, the Activity result in data set [2] is on record as “Non-Toxic”.

Take `COc1cc(/C=C/c2ccc(OCc3ccc(C)cc3)cc2)c(-c2cnn[nH]2)c(OC)c1`: the Activity result in data set [2] was “Non-Toxic”.

For `C=CCCOc1ccc(/C=C/c2cc(OC)cc(OC)c2-c2cnnn2C(=O)NC(C)C)cc1`, the IC50 at 24 h in data set [1] and in data set [5] was above 50 µM throughout. In addition, in data set [3], the pIC50 is 5.10. The inhibition at 10 µM in data set [4] came to 61.3%.

On to `C=CCCCOc1ccc(/C=C/c2cc(OC)cc(OC)c2-c2cnnn2C(=O)NCCCl)cc1`, for which the IC50 at 24 h in data set [1] and in data set [5] was above 50 µM throughout. In addition, in data set [3], the pIC50 is 5.70. Moreover, the inhibition at 10 µM in data set [4] came to 85.9%.

On to `C=CCCCOc1ccc(/C=C/c2cc(OC)cc(OC)c2-c2cnn[nH]2)cc1`, for which the IC50 at 24 h in data set [1] and in data set [5] was above 50 µM each time. The Activity entry in data set [2] is given as “Non-Toxic”. Moreover, the pIC50 in data set [3] is 5.21. Also, in data set [4], the inhibition at 10 µM worked out at 62.2%.

As to `COc1cc(/C=C/c2ccc(OCC3CC3)cc2)c(-c2cnn[nH]2)c(OC)c1`, the Activity entry in data set [2] is listed as “Non-Toxic”.

Consider `C=CCCOc1ccc(/C=C/c2cc(OC)cc(OC)c2-c2cnnn2C(=O)NCCCl)cc1`, for which the half-inhibitory concentration (IC50) at 24 h in data set [1] and in data set [5] was above 50 µM throughout. Moreover, the pIC50 in data set [3] was 5.85. The inhibition at 10 µM in data set [4] amounted to 96.9%.

For the molecule `COc1cc(/C=C/c2ccc(OCc3ccc(OC(F)(F)F)cc3)cc2)c(-c2cnn[nH]2)c(OC)c1`, the Activity entry in data set [2] is “Non-Toxic”.

Regarding `C=CCOc1ccc(/C=C/c2cc(OC)cc(OC)c2-c2cnnn2C(=O)NCC)cc1`, the IC50 at 24 h in data set [1] and in data set [5] was above 50 µM in each case. Besides, the pIC50 in data set [3] was 5.09. For the same molecule, in data set [4], the inhibition at 10 µM was determined as 67.3%.

Consider `C=CCCCOc1ccc(/C=C/c2cc(OC)cc(OC)c2-c2cnnn2C(=O)NCCC)cc1`, for which the half-maximal inhibitory concentration (IC50) at 24 h in data set [1] and in data set [5] was above 50 µM each time. The pIC50 in data set [3] is 5.21. Also, in data set [4], the inhibition at 10 µM worked out at 55.5%.

On to `COc1cc(/C=C/c2ccc(OC(=O)N(C)C)cc2)c(-c2cnn[nH]2)c(OC)c1`, for which, in data set [2], the Activity result was “Non-Toxic”.

On to `C=CCCOc1ccc(/C=C/c2cc(OC)cc(OC)c2-c2cnnn2C(=O)NCCCC)cc1`, for which the IC50 at 24 h in data set [1] and in data set [5] was above 50 µM each time. For the same molecule, in data set [3], the pIC50 was 4.98. For the same molecule, the inhibition at 10 µM in data set [4] amounted to 50.6%.

As for `C=CCCCOc1ccc(/C=C/c2cc(OC)cc(OC)c2-c2cnnn2C(=O)NCCCC)cc1`, the IC50 at 24 h in data set [1] and in data set [5] was above 50 µM in each case. The negative logarithm of the IC50 (pIC50) in data set [3] is 5.06. Further, the inhibition at 10 µM in data set [4] was determined as 60%.

Take `COc1cc(/C=C/c2ccc(OCCc3ccccc3)cc2)c(-c2cnn[nH]2)c(OC)c1`: in data set [2], the Activity entry was “Non-Toxic”.

For the molecule `C=CCCOc1ccc(/C=C/c2cc(OC)cc(OC)c2-c2cnn[nH]2)cc1`, the concentration for half-maximal inhibition (IC50) at 24 h in data set [1] and in data set [5] was above 50 µM each time. Moreover, in data set [2], the Activity result is on record as “Non-Toxic”. For the same molecule, in data set [3], the pIC50 was 4.84. Moreover, in data set [4], the inhibition at 10 µM came to 46.9%.

As to `CCCCOc1ccc(/C=C/c2cc(OC)cc(OC)c2-c2cnn[nH]2)cc1`, the Activity result in data set [2] is reported as “Non-Toxic”.

Regarding `C=C(C)COc1ccc(/C=C/c2cc(OC)cc(OC)c2-c2cnnn2C(=O)NC(C)C)cc1`, the half-inhibitory concentration (IC50) at 24 h in data set [1] and in data set [5] was above 50 µM each time. Besides, the pIC50 in data set [3] is 4.80. Further, in data set [4], the inhibition at 10 µM stood at 48.2%.

With `C=CCOc1ccc(/C=C/c2cc(OC)cc(OC)c2-c2cnn[nH]2)cc1`, the IC50 at 24 h in data set [1] and in data set [5] was above 50 µM in each case. Besides, in data set [2], the Activity entry is on record as “Non-Toxic”. Moreover, the pIC50 in data set [3] was 4.97. Also, the inhibition at 10 µM in data set [4] amounted to 53.7%.

Turning to `C=CCCCOc1ccc(/C=C/c2cc(OC)cc(OC)c2-c2cnnn2C(=O)NCC)cc1`, the IC50 at 24 h in data set [1] and in data set [5] was above 50 µM throughout. In data set [3], the pIC50 was 4.91. The inhibition at 10 µM in data set [4] is 49.6%.

Consider `C=CCCCOc1ccc(/C=C/c2cc(OC)cc(OC)c2-c2cnnn2C(=O)NCCc2ccccc2)cc1`, for which the IC50 at 24 h in data set [1] and in data set [5] was above 50 µM throughout. Further, the pIC50 in data set [3] was 5.19. Also, the inhibition at 10 µM in data set [4] was 67.8%.

Turning to `C=C(C)COc1ccc(/C=C/c2cc(OC)cc(OC)c2-c2cnnn2C(=O)NCC)cc1`, the IC50 at 24 h in data set [1] and in data set [5] was above 50 µM throughout. The pIC50 in data set [3] is 4.82. Further, the inhibition at 10 µM in data set [4] came out at 43.6%.

For `C=CCCCOc1ccc(/C=C/c2cc(OC)cc(OC)c2-c2cnnn2C(=O)NC(C)C)cc1`, the half-maximal inhibitory concentration (IC50) at 24 h in data set [1] and in data set [5] was above 50 µM throughout. The pIC50 in data set [3] was 5.01. The inhibition at 10 µM in data set [4] was found to be 53.4%.

For `C=CCCOc1ccc(/C=C/c2cc(OC)cc(OC)c2-c2cnnn2C(=O)NCCC)cc1`, the IC50 at 24 h in data set [1] and in data set [5] was above 50 µM throughout. Also, the pIC50 in data set [3] was 5.50. The inhibition at 10 µM in data set [4] was found to be 72.7%.
